From patent US12286435B2, “Compound having benzo seven-membered ring structure, preparation method therefor, and use thereof” (BIONNA (BEIJING) MEDICAL TECHNOLOGY CO., LTD., priority 2019, dated 2025)
“And” between values parts separate entries of the source, which are not always exact repeats. Equal entries are not always repeated.

Tests used:
[1] = tested on: leukemia MV4-11 cell line; experiment: Cell viability (CCK-8), leukemia MV4-11; format: cell-based; details: Homo sapiens, 96 h; MV4-11 cells, 4 days, CCK-8, 50% inhibition of cell growth
Method: 3. Determination of cell viability of the compound
The sample to be tested was dissolved with 100% dimethyl sulfoxide to prepare a 20 mM stock solution of the compound, which was diluted with 100% dimethyl sulfoxide to the highest compound concentration required for the experiment (2.5 mM).
First, 145 uL of a complete cell culture medium was added to wells B1-G1 of a 96-well flat-bottomed tansparent cell culture plate, and 100 uL of the complete medium was added to wells B2-G12, respectively. Then, 5 uL of the 2.5 mM solution of the compound was added to wells B1-D1 and E1-G1 respectively, and then diluted gradiently by 3-folds to B12-D12 and E12-G12 in sequence. Finally, 50 uL of the solution of the cells to be tested was added to each well, with about 3000-5000 cells per well, and a total volume of 150 uL per well.
In the experiment, in addition to the tested compound, two other control groups were set up: 1) a control group adding the cells and the complete medium, but without adding the compound; 2) a control group adding the complete medium only, without adding the cells and the compound. The 96-well plate was placed in a 37° C. cell culture incubator containing 5% carbon dioxide for 4 days, added with 15 uL of a CCK-8 reagent per well, and then incubated at 37° C. for 2-4 hours. The 96-well plate was read on a TECAN microplate reader, and the absorbance value at 450 nm wavelength was taken.
The effect of different concentrations of the compound on cell viability was calculated by the following equation: [absorption value of the experimental group−absorption value of pure cell culture medium without the cells or the compound]/[absorption value of the control group with the tumor cells but no testing compound−absorption value of pure cell culture medium without the cell or the compound]×100%.
The above data were precessed by software, and the IC50 value was the concentration of the compound corresponding to the 50% inhibition rate of cell growth.
Based on the above test method of the compound on cell viability, a variety of […] cancer cell lines were tested, using multiple myeloma MM.1S, breast cancer MDA-MB-231 and leukemia MV4-11 cell lines as exemples. Using this test method, the IC50 values of partial compounds in the examples of the present invention measured in multiple myeloma MM.1S, breast cancer MDA-MB-231 cell lines and leukemia MV4-11 cell lines were shown in Table 2.

BRD4 BD2 protein = BRD4 BD2 protein (Homo sapiens (Human), UniProt O60885); experiment: Fluorescence polarization binding affinity (Ki) with BRD4 BD2 protein; set-up: BRD4 BD2 Ki: reference not given here; details: fluorescence polarization; Ki calculated from IC50
[2] = tested on: multiple myeloma MM.1S cell line; experiment: Cell viability (CCK-8), multiple myeloma MM.1S; format: cell-based; details: Homo sapiens, MM1.S, 96 h, MM.1S cells, 4 days, CCK-8, 50% inhibition of cell growth
Summary of the method: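 Cells (about 3000-5000 per well) exposed to 3-fold serial dilutions of compound for 4 days at 37° C, 5% CO2. CCK-8 added 2-4 h, absorbance at 450 nm, viability normalised to untreated cells after medium-only blank subtraction; IC50 is concentration giving 50% growth inhibition.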

BRD4 BD1 protein = BRD4 BD1 protein (Homo sapiens (Human), UniProt O60885); experiment: Fluorescence polarization binding affinity (Ki) with BRD4 BD1 protein; details: fluorescence polarization; Ki calculated from IC50

SMILES	IC50 [1] [nM]	BRD4 BD2 Ki (BRD4 BD2 protein)	IC50 [2] [nM]	Ki (BRD4 BD1 protein)	Ki (BRD4 BD2 protein)
CNC(=O)Cc1cccc(NC2CCn3nnc(C)c3-c3ccc(-c4cnn(C)c4)cc32)c1 (centres unmarked) [LC10, N-methyl-2-(3-((1-methyl-9-(1-methyl-1H-pyrazol-4-yl)-6,7-dihydro-5H-benzo[c][1,2,3]triazolo[1,5-a]azepin-7-yl)amino)phenyl)acetamide]	12.8	<Kd	104	69.3 nM	
CNC(=O)Cc1ccccc1NC1CCn2nnc(C)c2-c2ccc(-c3cnn(C)c3)cc21 (centres unmarked) [LC11, N-methyl-2-(2-((1-methyl-9-(1-methyl-1H-pyrazol-4-yl)-6,7-dihydro-5H-benzo[c][1,2,3]triazolo[1,5-a]azepin-7-yl)amino)phenyl)acetamide]	15.4	<Kd	25.2	7.8 nM	
Cc1nnn2c1-c1ccc(C3=CCN(C4CCCCC4)CC3)cc1C(Nc1cccc(Cl)c1)CC2 (centres unmarked) [BH104, N-(3-chlorophenyl)-9-(1-cyclohexyl-1,2,3,6-tetrahydropyridin-4-yl)-1-methyl-6,7-dihydro-5H-benzo[c][1,2,3]triazolo[1,5-a]azepin-7-amine 2,2,2-trifluoroacetate]	1.32		119	710 nM	13.4 nM
Cc1nnn2c1-c1ccc(C3=CCN(C4CCC4)CC3)cc1C(Nc1cccc(Cl)c1)CC2 (centres unmarked) [BH159, N-(3-chlorophenyl)-9-(1-cyclobutyl-1,2,3,6-tetrahydropyridin-4-yl)-1-methyl-6,7-dihydro-5H-benzo[c][1,2,3]triazolo[1,5-a]azepin-7-amine 2,2,2-trifluoroacetate]	75.2		285	879 nM	9.31 nM
Cc1nnn2c1-c1ccc(C3=CCN(C4CCCC4)CC3)cc1C(Nc1cc(Cl)ccc1F)CC2 (centres unmarked) [BH190, N-(5-chloro-2-fluorophenyl)-9-(1-cyclopentyl-1,2,3,6-tetrahydropyridin-4-yl)-1-methyl-6,7-dihydro-5H-benzo[c][1,2,3]triazolo[1,5-a]azepin-7-amine 2,2,2-trifluoroacetate]	62.8		248	1620 nM	12.9 nM and 27.9 nM
CCN1CC=C(c2ccc3c(c2)C(Nc2ccc(Cl)cc2)CCn2nnc(C)c2-3)CC1 (centres unmarked) [LD23, N-(4-chlorophenyl)-9-(1-ethyl-1,2,3,6-tetrahydropyridin-4-yl)-1-methyl-6,7-dihydro-5H-benzo[c][1,2,3]triazolo[1,5-a]azepin-7-amine 2,2,2-trifluoroacetate]	7.32		443	334 nM	41.5 nM
CC(=O)N1CC=C(c2ccc3c(c2)C(Nc2cc(Cl)ccc2F)CCn2nnc(C)c2-3)CC1 (centres unmarked) [BH192, 1-(4-(7-((5-chloro-2-fluorophenyl)amino)-1-methyl-6,7-dihydro-5H-benzo[c][1,2,3]triazolo[1,5-a]azepin-9-yl)-3,6-dihydropyridin-1 (2H)-yl)ethan-1-one]	0.21		6.15	106 nM	3.45 nM
Cc1nnn2c1-c1ccc(C3=CCN(C4CCCCC4)CC3)cc1C(Nc1cc(Cl)ccc1F)CC2 (centres unmarked) [BH187, N-(5-chloro-2-fluorophenyl)-9-(1-cyclohexyl-1,2,3,6-tetrahydropyridin-4-yl)-1-methyl-6,7-dihydro-5H-benzo[c][1,2,3]triazolo[1,5-a]azepin-7-amine 2,2,2-trifluoroacetate]	106		1300	1720 nM	28.8 nM
Cc1nnn2c1-c1ccc(-c3cnn(C)c3)cc1C(Nc1cccc(CO)c1)CC2 (centres unmarked) [LB164, (3-((1-methyl-9-(1-methyl-1H-pyrazol-4-yl)-6,7-dihydro-5H-benzo[c][1,2,3]triazolo[1,5-a]azepin-7-yl)amino)phenyl)methanol]	39.3		26	95.7 nM	12.7 nM
CCN1CC=C(c2ccc3c(c2)C(Nc2cccc(Cl)c2)CCn2nnc(C)c2-3)CC1 (centres unmarked) [BH36, N-(3-chlorophenyl)-9-(1-ethyl-1,2,3,6-tetrahydropyridin-4-yl)-1-methyl-6,7-dihydro-5H-benzo[c][1,2,3]triazolo[1,5-a]azepin-7-amine 2,2,2-trifluoroacetate]	57.5		146	717 nM and 1400 nM	13.8 nM and 16 nM
Cc1nnn2c1-c1ccc(C3=CCN(C4CCCCC4)CC3)cc1C(Nc1ccc(F)c(Cl)c1)CC2 (centres unmarked) [LD76, N-(3-chloro-4-fluorophenyl)-9-(1-cyclohexyl-1,2,3,6-tetrahydropyridin-4-yl)-1-methyl-6,7-dihydro-5H-benzo[c][1,2,3]triazolo[1,5-a]azepin-7-amine 2,2,2-trifluoroacetate]	106		879	1060 nM	10.7 nM and 36.1 nM
Cc1nnn2c1-c1ccc(C3=CCNCC3)cc1C(Nc1cccc(O)c1)CC2 (centres unmarked) [LC97, 3-((1-methyl-9-(1,2,3,6-tetrahydropyridin-4-yl)-6,7-dihydro-5H-benzo[c][1,2,3]triazolo[1,5-a]azepin-7-yl)amino)phenol 2,2,2-trifluoroacetate]			591	795 nM	40.6 nM
Cc1nnn2c1-c1ccc(-c3ccnc4[nH]ccc34)cc1C(Nc1ccc(Cl)cc1)CC2 (centres unmarked) [RB31, N-(4-chlorophenyl)-1-methyl-9-(1H-pyrrolo[2,3-b]pyridin-4-yl)-6,7-dihydro-5H-benzo[c][1,2,3]triazolo[1,5-a]azepin-7-amine]			676	33.6 nM	24.7 nM
COc1ccc2c(c1)C(Nc1ccccc1)CCc1onc(C)c1-2 (centres unmarked) [FA03, 8-methoxy-1-methyl-N-phenyl-5,6-dihydro-4H-benzo[6,7]cyclohepta[1,2-d]isoxazol-6-amine]			502	206 nM	56.3 nM
CC(=O)N1CC=C(c2ccc3c(c2)C(Nc2ccc(F)c(Cl)c2)CCn2nnc(C)c2-3)CC1 (centres unmarked) [LD77, 1-(4-(7-((3-chloro-4-fluorophenyl)amino)-1-methyl-6,7-dihydro-5H-benzo[c][1,2,3]triazolo[1,5-a]azepin-9-yl)-3,6-dihydropyridin-1(2H)-yl)ethan-1-one]			1.86	81.7 nM	3.97 nM and 3.16 nM
Cc1nnn2c1-c1ccc(-c3cnn(C)c3)cc1C(Nc1ccc3cc[nH]c3c1)CC2 (centres unmarked) [LB113, N-(1H-indo1-6-yl)-1-methyl-9-(1-methyl-1H-pyrazol-4-yl)-6,7-dihydro-5H-benzo[c][1,2,3]triazolo[1,5-a]azepin-7-amine]			11.2	38 nM	7.4 nM
Cc1nnn2c1-c1ccc(-c3ccc(N)nc3)cc1C(Nc1ccc(Cl)cc1)CC2 (centres unmarked) [RB03, 9-(6-aminopyridin-3-yl)-N-(4-chlorophenyl)-1-methyl-6,7-dihydro-5H-benzo[c][1,2,3]triazolo[1,5-a]azepin-7-amine]			16.9	36.9 nM	16.6 nM
Cc1nnn2c1-c1ccc(-c3ccc4c(c3)OCO4)cc1C(Nc1ccc(Cl)cc1)CC2 (centres unmarked) [RB11, 9-(benzo[d][1,3]dioxo1-5-yl)-N-(4-chlorophenyl)-1-methyl-6,7-dihydro-5H-benzo[c][1,2,3]triazolo[1,5-a]azepin-7-amine]			323	89.9 nM	12.9 nM
CNC(=O)c1ccc(NC2CCn3nnc(C)c3-c3ccc(-c4cnn(C)c4)cc32)cc1 (centres unmarked) [LB128]			153	89.3 nM	22.8 nM
CNC(=O)c1ccccc1NC1CCn2nnc(C)c2-c2ccc(-c3cnn(C)c3)cc21 (centres unmarked) [LB186]			36.6	82.2 nM	13.7 nM
Cc1nnn2c1-c1ccc(-c3cnn(C)c3)cc1C(Nc1ccc(CC#N)cc1)CC2 (centres unmarked) [LC03, 2-(4-((1-methyl-9-(1-methyl-1H-pyrazol-4-yl)-6,7-dihydro-5H-benzo[c][1,2,3]triazolo[1,5-a]azepin-7-yl)amino)phenyl)acetonitrile]			59	32.9 nM	1.33 nM and 4.03 nM
